Activity calls are given as the source filed them.
Columns and labels:
[1] = A2780 ovarian cancer cell cytotoxicity, dose response, cytotoxicity control, plate reader, dry powder samples (AID 743046); format: functional, cell-based
[2] = IGROV1 ovarian cancer cell cytotoxicity, dose response, PAX8 inhibitor project, plate reader, dry powder samples (AID 743043); format: functional, cell-based; settings: IGROV-1
[3] = non-specific cell cytotoxicity, dose response, cytotoxicity control for PAX8 inhibitor project, plate reader, dry powder samples (AID 743021); format: functional, cell-based
[4] = P. falciparum Dd2 growth inhibitors, dose response, SYBR Green, cherry-picked samples (AID 1159567); format: functional, cell-based
[5] = HepG2 cell cytotoxicity, dose response, cytotoxicity control, cherry-picked samples (AID 1159577); format: functional, cell-based
fMet-Leu-Phe receptor = fMet-Leu-Phe receptor (Homo sapiens, UniProt P21462); test: FPR ligands, dose response (AID 519); format: functional
Cytochrome P450 3A4 = Cytochrome P450 3A4 (Homo sapiens, UniProt P08684);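 further: CYP3A4 tested as one member of a cytochrome P450 panel screen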
[6] = biological target: T1, High affinity choline transporter 1 (Homo sapiens, UniProt Q9GZV3); test: CHT inhibitors, dose response, cell-based, 5-point CRC, membrane potential dye (AID 504840); format: functional
T1 sequence (Q9GZV3 whole entry): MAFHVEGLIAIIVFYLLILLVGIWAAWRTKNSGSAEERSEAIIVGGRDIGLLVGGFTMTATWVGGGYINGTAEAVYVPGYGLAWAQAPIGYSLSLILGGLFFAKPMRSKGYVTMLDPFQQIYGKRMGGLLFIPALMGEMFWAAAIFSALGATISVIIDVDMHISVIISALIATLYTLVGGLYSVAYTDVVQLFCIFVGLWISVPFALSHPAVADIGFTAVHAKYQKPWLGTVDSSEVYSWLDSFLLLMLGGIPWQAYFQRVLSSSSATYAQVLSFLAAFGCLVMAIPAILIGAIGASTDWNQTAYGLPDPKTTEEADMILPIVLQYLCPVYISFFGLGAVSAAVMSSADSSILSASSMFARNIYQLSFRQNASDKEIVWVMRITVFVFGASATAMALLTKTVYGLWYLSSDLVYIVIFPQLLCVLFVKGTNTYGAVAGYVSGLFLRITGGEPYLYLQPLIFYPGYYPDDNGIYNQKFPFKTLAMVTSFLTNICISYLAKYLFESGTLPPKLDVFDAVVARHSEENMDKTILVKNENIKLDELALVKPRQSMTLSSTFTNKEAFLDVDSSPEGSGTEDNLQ

Caspase-6 = Caspase-6 (Homo sapiens, UniProt P55212); test: human caspase-6 inhibitors, dose response, biochemical, VEID-R110 fluorescence, cherry-pick (AID 720632)
[7] = biological target: T2, Histone-lysine N-methyltransferase NSD2 (Homo sapiens, UniProt O96028); format: biochemical
T2 sequence (O96028 whole entry): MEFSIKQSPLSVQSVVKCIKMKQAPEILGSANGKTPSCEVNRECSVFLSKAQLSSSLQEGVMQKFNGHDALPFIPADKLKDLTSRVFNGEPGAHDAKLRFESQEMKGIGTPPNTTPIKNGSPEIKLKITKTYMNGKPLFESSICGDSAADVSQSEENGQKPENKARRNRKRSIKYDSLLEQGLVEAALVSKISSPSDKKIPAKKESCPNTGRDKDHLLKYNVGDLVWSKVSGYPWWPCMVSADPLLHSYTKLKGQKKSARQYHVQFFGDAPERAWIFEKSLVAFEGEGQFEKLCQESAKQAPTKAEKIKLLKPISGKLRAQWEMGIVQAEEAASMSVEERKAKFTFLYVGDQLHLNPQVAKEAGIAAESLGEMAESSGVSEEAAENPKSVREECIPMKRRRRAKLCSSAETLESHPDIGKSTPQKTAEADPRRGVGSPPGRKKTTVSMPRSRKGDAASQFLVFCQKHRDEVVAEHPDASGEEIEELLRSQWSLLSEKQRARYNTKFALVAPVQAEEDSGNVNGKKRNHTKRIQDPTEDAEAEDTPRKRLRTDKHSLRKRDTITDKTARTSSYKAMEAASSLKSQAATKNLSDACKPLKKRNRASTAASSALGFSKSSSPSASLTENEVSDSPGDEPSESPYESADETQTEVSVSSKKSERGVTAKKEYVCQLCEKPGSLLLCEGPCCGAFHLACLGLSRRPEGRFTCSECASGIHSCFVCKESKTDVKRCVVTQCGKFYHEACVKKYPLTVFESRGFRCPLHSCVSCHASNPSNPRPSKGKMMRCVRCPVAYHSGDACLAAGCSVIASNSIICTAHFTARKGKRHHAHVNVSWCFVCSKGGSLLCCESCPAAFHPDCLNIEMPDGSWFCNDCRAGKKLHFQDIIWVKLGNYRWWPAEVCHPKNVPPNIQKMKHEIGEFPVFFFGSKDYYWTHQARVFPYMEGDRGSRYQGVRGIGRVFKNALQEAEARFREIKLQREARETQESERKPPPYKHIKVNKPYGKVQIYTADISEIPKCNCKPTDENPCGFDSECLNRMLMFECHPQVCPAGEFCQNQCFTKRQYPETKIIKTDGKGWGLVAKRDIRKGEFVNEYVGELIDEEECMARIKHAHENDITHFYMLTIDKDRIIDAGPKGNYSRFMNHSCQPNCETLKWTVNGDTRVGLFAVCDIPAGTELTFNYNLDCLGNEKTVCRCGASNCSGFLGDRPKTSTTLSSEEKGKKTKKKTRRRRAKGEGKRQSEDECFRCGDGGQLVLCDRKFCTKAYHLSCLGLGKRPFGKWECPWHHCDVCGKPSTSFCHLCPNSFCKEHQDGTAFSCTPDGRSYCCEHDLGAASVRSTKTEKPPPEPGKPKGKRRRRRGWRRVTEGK

HEK293 = test: HEK293T cell cytotoxicity, dose response, cytotoxicity control, ATP luminescence, cherry-pick samples (AID 687005); format: functional, cell-based; settings: Homo sapiens;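 further: cells exposed to compound for 48 hours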
[8] = HEK293 Cytotoxicity Assay Measured in Cell-Based System Using Plate Reader - 7071-01_Inhibitor_Dose_CherryPick_Activity_Set2.; format: functional
Jurkat = test: antigen receptor-induced NF-kB inhibitors, dose response, Jurkat, luciferase reporter, luminescence, B- and T-cell (AID 489004); format: functional, cell-based; settings: Homo sapiens;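 further: NF-kB luciferase reporter Jurkat cells stimulated with PMA plus ionomycin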
[9] = cytotoxicity in HEK-293T NF-kB-Luc cells, dose response, cytotoxicity control for B/T-cell NF-kB inhibitor project, cell-based, uHTS hits (AID 489019); format: functional;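 further: IC50 reflects cytotoxicity as loss of cell viability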
[10] = biological target: T3, Microphthalmia-associated transcription factor (Homo sapiens, UniProt O75030); test: TRPM1 promoter luciferase signal decrease, dose response, MITF inhibitor project, cell-based, SK-MEL-5, cherry-picked, set 3 (AID 493073); format: functional
T3 sequence (O75030 whole entry): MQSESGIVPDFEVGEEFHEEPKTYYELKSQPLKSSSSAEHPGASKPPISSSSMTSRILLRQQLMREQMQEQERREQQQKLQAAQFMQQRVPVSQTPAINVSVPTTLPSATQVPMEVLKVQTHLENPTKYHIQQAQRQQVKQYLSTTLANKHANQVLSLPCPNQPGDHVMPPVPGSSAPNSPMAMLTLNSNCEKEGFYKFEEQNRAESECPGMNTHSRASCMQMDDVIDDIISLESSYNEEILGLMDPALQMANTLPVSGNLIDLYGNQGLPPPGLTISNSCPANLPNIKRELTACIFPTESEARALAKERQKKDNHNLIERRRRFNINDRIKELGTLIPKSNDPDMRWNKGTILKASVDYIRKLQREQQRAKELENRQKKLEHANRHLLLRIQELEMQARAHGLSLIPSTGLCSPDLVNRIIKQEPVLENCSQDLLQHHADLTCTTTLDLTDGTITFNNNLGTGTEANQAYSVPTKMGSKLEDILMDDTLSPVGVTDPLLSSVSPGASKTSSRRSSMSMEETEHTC

Melanocortin receptor 4 = Melanocortin receptor 4 (Homo sapiens, UniProt P32245); test: MC4R antagonist potency on cAMP, dose response, cell-based, TR-FRET, biased antagonists (AID 602298); format: functional;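 further: antagonist potency against agonist-stimulated cAMP production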
[11] = Shn3 3'UTR reporter inhibitors, dose response, cell-based, Clone20 osteoblasts, firefly luciferase, cherry-picked (AID 624132); format: functional;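 further: firefly luciferase luminescence from reporter carrying the Shn3 3'UTR in osteoblasts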
[12] = HepG2 cell cytotoxicity, dose response, cytotoxicity control for Shn3 inhibitor project, CellTiter-Glo, cherry-picked (AID 624134); format: functional, cell-based
[13] = control 3'UTR Renilla luciferase suppression, dose response, counter-screen for Shn3 inhibitor project, cell-based, Clone20-Shn3RL, cherry-picked (AID 624133); format: functional
[14] = nonselective inhibitors of cellular cAMP signaling, dose response, counter-screen for MC4R biased antagonist project, cell-based, TR-FRET cAMP detection (AID 602305); format: functional;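 further: U2OS cells stimulated with forskolin near its EC80 as the cAMP inducer; potency is for inhibition of forskolin-stimulated cAMP signaling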
[15] = inhibitors of HIV Env-driven cell fusion, dose response, cherry-pick (AID 652057); format: functional, cell-based
[16] = CEM21 lymphoblast cell cytotoxicity, dose response, cytotoxicity control for viral fusion inhibitor project, CellTiter-Glo luminescence, cherry-picked (AID 652042); format: functional, cell-based;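 further: potency for signal decrease meaning cytotoxicity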
[17] = ZM109 Env clade C HIV-1 fusion inhibitors, dose response, HeLa effector, CEM target cells, luciferase, cherry-pick (AID 652058); format: functional, cell-based
Paired box protein Pax-8 = Paired box protein Pax-8 (Homo sapiens, UniProt Q06710); test: inhibitors of PAX8-driven TPO luciferase reporter, dose response, RMG-I cells, cherry-pick (AID 687027); format: functional, cell-based;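 further: luciferase reporter driven by Pax8 target thyroperoxidase promoter measured by SteadyGlo luminescence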
[18] = off-target signal loss in HeLa-CEM21 co-culture – HeLa F-luc CTL cells, cherry-picked, counter-screen for HIV-1 Env fusion inhibitor project, dose response (AID 652040); format: functional, cell-based;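 further: potency for signal decrease marking cytotoxic or nonspecific inhibition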
[19] = inhibitors of clade B AD8 Env fusion, dose response, cell-based, cherry-pick (AID 652062); format: functional;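 further: luciferase signal from cell-cell fusion driven by HIV-1 clade B AD8 Env; potency is for inhibitors of fusion seen as a drop in luminescence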
[20] = inhibitors of PGC1a acetylation in cells, dose response, cell-based, cherry-picked samples (AID 720514); format: functional;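 further: potency may reflect raised or lowered acetylation signal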
[21] = A549 cell cytotoxicity, dose response, cytotoxicity control, plate reader, cherry-pick, antagonist series (AID 743412); format: functional, cell-based
[22] = HepG2 cell cytotoxicity, dose response, cytotoxicity control, plate reader, cherry-pick, antagonist series (AID 743416); format: functional, cell-based
[23] = LGR2 antagonists, dose response, cell-based, HEK293, CRE-luciferase reporter, cherry pick, set 2 (AID 743343); format: functional;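 further: transfected cells were stimulated with diluted bursicon conditioned medium after compound addition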
[24] = MC4R antagonists, dose response, counter-screen for LGR2 antagonist project, cell-based, plate reader, cherry pick (AID 743444); format: functional;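 further: transfected HEK 293 cells stimulated with alpha-MSH peptide; potency of inhibitors of the alpha-MSH evoked signal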
[25] = HEK293 cell cytotoxicity, dose response, cytotoxicity control, plate reader, cherry-picked samples (AID 743446); format: functional, cell-based
[26] = NIH-3T3 fibroblast cytotoxicity, dose response, cytotoxicity control, cell-based, fluorescence, Alamar Blue, secondary assay (AID 2327); format: functional;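 further: NIH-3T3 mouse fibroblasts cultured with fluconazole at 8 µg/mL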
[27] = C. albicans growth with fluconazole, confirmation, fluorescence, retest (AID 2467); format: functional, cell-based
[28] = cytotoxicity in HEK-293T cells, dose response, cytotoxicity control for TCR NF-kB inhibitor project, luminescence, T-cell screen hits (AID 489026); format: functional, cell-based;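 further: cells exposed to compound about 14 hours before the viability readout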
[29] = biological target: Heat shock protein HSP 90-alpha (Homo sapiens, UniProt P07900); format: functional, organism-based
Galanin receptor type 3 = Galanin receptor type 3 (Homo sapiens, UniProt O60755); test: Fluorescence-based cell-based primary high throughput dose response assay to identify antagonists of the Galanin Receptor 3 (GalR3).; format: functional
cells = format: functional, cell-based; settings: HEK-CNG
[30] = reduction of Shn3 3'UTR firefly luciferase signal, dose response, Schnurri-3 inhibitor project, cell-based, Clone20 osteoblasts, cherry-pick, set 2 (AID 720490); format: functional;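 further: actives lower the luminescence signal as inhibitors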

Chain of Caspase-6 (P55212 24-179 limits assumed): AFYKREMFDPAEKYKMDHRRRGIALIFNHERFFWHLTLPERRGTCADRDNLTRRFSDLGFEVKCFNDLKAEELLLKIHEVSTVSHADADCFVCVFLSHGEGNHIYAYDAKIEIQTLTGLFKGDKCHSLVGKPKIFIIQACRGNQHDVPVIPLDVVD
Chain of Caspase-6 (P55212 194-293 limits assumed): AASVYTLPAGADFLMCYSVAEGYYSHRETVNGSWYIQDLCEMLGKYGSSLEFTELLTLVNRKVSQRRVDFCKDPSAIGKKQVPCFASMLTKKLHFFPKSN
Chain of Melanocortin receptor 4 (P32245 whole entry): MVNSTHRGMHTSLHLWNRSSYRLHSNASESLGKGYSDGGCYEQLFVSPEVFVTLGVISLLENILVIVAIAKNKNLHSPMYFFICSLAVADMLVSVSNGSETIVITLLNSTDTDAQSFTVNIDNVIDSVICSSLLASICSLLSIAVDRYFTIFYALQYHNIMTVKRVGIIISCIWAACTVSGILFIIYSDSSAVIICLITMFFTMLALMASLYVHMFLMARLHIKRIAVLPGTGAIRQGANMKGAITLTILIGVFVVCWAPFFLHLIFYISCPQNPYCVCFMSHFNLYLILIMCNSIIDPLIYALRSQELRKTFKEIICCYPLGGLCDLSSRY
Chain of Galanin receptor type 3 (O60755 whole entry): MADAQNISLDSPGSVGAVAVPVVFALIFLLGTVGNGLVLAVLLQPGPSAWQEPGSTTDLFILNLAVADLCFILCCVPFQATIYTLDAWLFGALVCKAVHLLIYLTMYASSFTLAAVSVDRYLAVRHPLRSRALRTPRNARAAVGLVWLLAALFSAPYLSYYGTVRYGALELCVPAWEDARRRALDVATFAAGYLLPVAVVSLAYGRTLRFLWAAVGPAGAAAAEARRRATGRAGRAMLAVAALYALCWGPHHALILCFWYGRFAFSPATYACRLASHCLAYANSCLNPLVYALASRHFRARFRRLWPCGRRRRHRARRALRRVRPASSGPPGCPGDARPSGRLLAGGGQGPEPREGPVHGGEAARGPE
Chain of Paired box protein Pax-8 (Q06710 whole entry, the tested form may be a part): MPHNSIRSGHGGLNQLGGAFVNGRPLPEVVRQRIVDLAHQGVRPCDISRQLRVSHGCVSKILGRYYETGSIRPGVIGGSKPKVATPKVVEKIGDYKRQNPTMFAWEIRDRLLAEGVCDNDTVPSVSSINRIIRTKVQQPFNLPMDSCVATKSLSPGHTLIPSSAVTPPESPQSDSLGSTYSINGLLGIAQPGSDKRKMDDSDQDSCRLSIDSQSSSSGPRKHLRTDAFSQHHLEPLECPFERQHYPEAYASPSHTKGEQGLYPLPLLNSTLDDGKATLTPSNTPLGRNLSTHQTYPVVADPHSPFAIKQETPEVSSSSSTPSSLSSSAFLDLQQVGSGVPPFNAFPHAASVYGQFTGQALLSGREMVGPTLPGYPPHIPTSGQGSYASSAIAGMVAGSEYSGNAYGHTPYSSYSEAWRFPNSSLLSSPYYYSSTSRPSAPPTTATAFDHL
Chain of Cytochrome P450 3A4 (P08684 whole entry): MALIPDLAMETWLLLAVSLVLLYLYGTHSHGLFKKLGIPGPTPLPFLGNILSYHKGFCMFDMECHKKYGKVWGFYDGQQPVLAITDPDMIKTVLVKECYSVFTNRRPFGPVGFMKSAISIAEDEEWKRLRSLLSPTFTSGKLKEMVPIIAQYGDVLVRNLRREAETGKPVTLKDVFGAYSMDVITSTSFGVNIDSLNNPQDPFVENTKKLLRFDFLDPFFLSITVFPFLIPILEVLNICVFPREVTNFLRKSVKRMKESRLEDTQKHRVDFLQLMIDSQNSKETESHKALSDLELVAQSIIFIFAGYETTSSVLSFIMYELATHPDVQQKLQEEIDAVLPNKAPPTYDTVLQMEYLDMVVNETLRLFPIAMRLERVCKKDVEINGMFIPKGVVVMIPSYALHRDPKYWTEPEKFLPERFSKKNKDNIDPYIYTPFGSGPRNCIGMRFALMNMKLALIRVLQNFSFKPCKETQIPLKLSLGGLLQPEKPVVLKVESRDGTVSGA
Chain of fMet-Leu-Phe receptor (P21462 whole entry): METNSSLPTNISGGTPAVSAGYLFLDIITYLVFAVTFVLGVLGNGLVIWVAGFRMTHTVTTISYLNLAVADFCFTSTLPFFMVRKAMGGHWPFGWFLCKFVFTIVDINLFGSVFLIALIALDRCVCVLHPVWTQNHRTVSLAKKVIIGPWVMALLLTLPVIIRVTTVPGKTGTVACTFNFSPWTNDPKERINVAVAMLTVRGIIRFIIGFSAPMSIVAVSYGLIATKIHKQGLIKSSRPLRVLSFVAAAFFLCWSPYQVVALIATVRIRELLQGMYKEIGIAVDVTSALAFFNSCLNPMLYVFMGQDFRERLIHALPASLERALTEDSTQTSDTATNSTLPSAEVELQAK

Cc1ccc(-c2ccc([C@@H]3[C@@H]4CN(Cc5ccccc5F)C[C@H]3N4)cc2)cc1
AC50 [1]: 63.6 µM (active)
AC50 [2]: 55.4 µM (active)
AC50 [3]: 13.2 µM (active)
AC50 [4]: 4.05 µM (active)
AC50 [5]: 10.3 µM (active)

COc1ccc(-c2cc(C(F)(F)F)nc(N3CCCCC3)n2)cc1OC
Ki (fMet-Leu-Phe receptor): > 66.7 µM (inactive)
AC50 (Cytochrome P450 3A4): 25.1 µM (inconclusive)

O=C1N/C(=N\c2ccccc2Cl)S/C1=C\c1cccc([N+](=O)[O-])c1O
IC50 [6]: 12.6 µM (active)
AC50 (Caspase-6): 11 µM (active)
AC50 [7]: 19.2 µM (active)

CN1C(=O)c2cc(NC(=O)NC3CCCC3)ccc2OC[C@H]2O[C@@H](CC(=O)NCC3CC3)CC[C@@H]21
AC50 (HEK293): > 57 µM (inactive)
AC50 [8]: > 57 µM (inactive)

CC(C)C(=O)C1=Cc2cccc([N+](=O)[O-])c2OC1N1CCOCC1 (stereo not given)
AC50 (Caspase-6): 43.7 µM (active)

Cc1noc(C)c1NC(=O)Nc1ccc2c(c1)C(=O)N([C@H](C)CO)C[C@@H](C)[C@H](CN(C)S(C)(=O)=O)OCCCC[C@@H](C)O2
AC50 (HEK293): 16.3 µM (active)
AC50 [8]: 16.3 µM (active)

C#CC(=O)N(c1ccc(OC)cc1OC)C(C(=O)NC1CCCC1)c1cccs1 (stereo not given)
IC50 (Jurkat): 0.32 µM (active)
IC50 [9]: 37.3 µM (inactive)
AC50 [10]: 4.73 µM (active)
IC50 (Melanocortin receptor 4): > 64.6 µM (inactive)
AC50 [11]: 7.12 µM (active)
AC50 [12]: 4.23 µM (active)
AC50 [13]: 1.11 µM (active)
IC50 [14]: > 64.6 µM (inactive)
AC50 [15]: 14.8 µM (active)
AC50 [16]: 0.631 µM (active)
AC50 [17]: 14.4 µM (active)
AC50 (Paired box protein Pax-8): < 0.26 µM (active)
AC50 [18]: 4.53 µM (active)
AC50 [19]: 9.92 µM (active)
AC50 [20]: 3.91 µM (active)
AC50 [21]: 13.4 µM (active)
AC50 [22]: 0.839 µM (active)
AC50 [23]: 8.43 µM (active)
AC50 [3]: 0.678 µM (active)
AC50 [24]: 6.64 µM (active)
AC50 [25]: 1.87 µM (active)

CC(C)CCOc1cccc(OCC(=O)Nc2ccncc2)c1
EC50 [26]: > 160 µM (inactive)
EC50 [27]: 3.63 µM (active)
IC50 [28]: > 80 µM (inactive)
AC50 [29]: 2.62 µM (active)
AC50 [11]: 0.571 µM (active)
AC50 [12]: 48.5 µM (active)
AC50 [13]: 2.72 µM (active)
IC50 (Galanin receptor type 3): 1.06 µM (active)
EC50 (cells): > 29.9 µM (inactive)
AC50 [30]: 1.07 µM (active)

Cc1ccc([C@@H]2CC(=O)[C@@H]3CN(S(=O)(=O)c4ccccc4C)[C@H](c4ccc(Cl)cc4)C[C@@H]3N2S(=O)(=O)c2ccc(C)cc2)cc1
AC50 [11]: 0.361 µM (active)
AC50 [12]: 36.7 µM (active)
AC50 [13]: 3.29 µM (active)
AC50 [30]: 0.672 µM (active)

— ChEMBL document CHEMBL1201862, “PubChem BioAssay data set” (2004)
